Assay results: patent US20260191863A1, “PYRROLOPYRIMIDINE COMPOSITIONS FOR TREATMENT OF ITK MEDIATED CONDITIONS” (ACLARIS THERAPEUTICS, INC., priority 2022, published 2026)
Where “and” joins values, the source holds several entries; their conditions need not be identical. Equal values may be shown once. Read-outs that look alike come from different tables or passages of the source.

Columns and labels:
[1] = Phase 1 single ascending dose (SAD) study: pharmacokinetics, food effect, formulation bridging; type: in vivo, human; settings: for AUC(0-t): read-out: AUC0-24; for half-life: read-out: T1/2 (converted); for Vd/F: read-out: Vz/F
Method: Type of Study—This was an FIH, randomized, observer-blind, placebo-controlled study designed to evaluate the safety, tolerability, PK, and PD of Compound I in healthy subjects. The study consisted of: single ascending dose (SAD) cohorts (1-80 mg/day) plus formulation bridging and food effect (FE) cohorts.
Approximately 64 male and female subjects were enrolled into 8 planned cohorts in the SAD study. In each cohort, a total of 8 subjects were randomized to receive a single oral capsule dose of Compound I (n=6) or placebo (n=2) in the morning with approximately 240 mL of water after an overnight fast of at least 8 hours.
Cohort 4 was an FE (food effect) cohort where subjects received Compound I capsules or placebo, fasted on Day 1 and Compound I or placebo after a high-fat, high-calorie breakfast on Day 8 after a 7-day washout period.
Cohort 5 was a formulation bridging cohort where subjects will receive Compound I capsules or placebo on Day 1 and Compound I tablets or placebo on Day 8 after a 7-day washout period.
The dosage form of Compound I in Cohorts 6, 7, and 8 were capsules and the subjects will receive a single oral dose of Compound I (n=6) capsules or placebo (n=2) on Day 1 after an overnight fast of at least 8 hours.

[2] = 13 week toxicology and toxicokinetic study in cynomolgus monkeys; type: in vivo, cynomolgus monkey; settings: for AUC(0-t) / Cmax: in vivo
Source text: Purpose: Evaluation of toxicity and toxicokinetic (TK) for Compound I, following daily dosing for 13 weeks.

ITK & JAK (IFNγ protein) = test: SAD ex vivo PD: αCD3/IL15 stimulated IFNγ protein production; type: in vivo, human; settings: for EC50: Homo sapiens; for Inhibition of dual ITK and JAK3-stimulated IFNγ protein production: SAD higher dose cohorts
Source text: Summary of SAD data: FIGS. 4-8 and 9-13 show the SAD dose response, SAD exposure response, and SAD calculated response at Cmax by dose respectively for ITK (IL2 mRNA), ITK (IFNγ mRNA), JAK3 (pSTAT5, lymph), JAK3 (pSTAT5, CD3′ T), and ITK & JAK (IFNγ protein). Clinical and pre-clinical IC50 data for ITK (IL2 mRNA), ITK (IFNγ mRNA), JAK3 (pSTAT5, lymph), JAK3 (pSTAT5, CD3^+ T), and ITK & JAK (IFNγ protein) from the SAD study is shown in table 4.

[3] = both sexes, human, in vivo, po, 50 mg, single oral dose 50 mg, capsule, fasted
[4] = both sexes, human, in vivo, po, 80 mg, single oral dose 80 mg, capsule, fasted
[5] = single oral dose 15 mg, capsule, fasted
[6] = single oral dose 15 mg, capsule, fed (high-fat, high-calorie breakfast)

C=CC(=O)N1C[C@H](Nc2ncnc3[nH]cc([C@H]4CC4(F)F)c23)CC[C@@H]1C [Compound I, 1-((2S,5R)-5-((5-((R)-2,2-difluorocyclopropyl)-7H-pyrrolo[2,3-d]pyrimidin-4-yl)amino)-2-methylpiperidin-1-yl)prop-2-en-1-one]
AUC(0-t) [1, 3]: 426 ng·h/mL
half-life [1, 3]: 1.84 h
Tmax ([1]; both sexes, human, in vivo, po, 50 mg, single oral dose 50 mg, capsule, fasted, read-out: Tmax): 1.24 h
Vd/F [1, 3]: 310 L
AUC(0-inf) [1, 4]: 676 ng·h/mL
Cmax [1, 4]: 196 ng/mL
AUC(0-t) [1, 4]: 675 ng·h/mL
half-life [1, 4]: 2.53 h
Tmax ([1]; both sexes, human, in vivo, po, 80 mg, single oral dose 80 mg, capsule, fasted, read-out: Tmax): 1.22 h
Vd/F [1, 4]: 432 L
Effect of high-calorie, high-fat meal on AUC, bioavailability, T1/2 ([1]; single 15 mg dose): no significant effect
Reduction of Cmax by a high-calorie, high-fat meal ([1]; single 15 mg dose): 31%
CL/F ([1]; single oral dose 1 mg, capsule, fasted): 168 L/h
CL/F ([1]; single oral dose 3 mg, capsule, fasted): 190 L/h
CL/F ([1]; single oral dose 5 mg, capsule, fasted): 149 L/h
CL/F [1, 5]: 155 L/h
Tmax [1, 5]: 1.09 h
CL/F [1, 6]: 160 L/h
Tmax [1, 6]: 4.99 h
CL/F ([1]; single oral dose 25 mg, capsule, fasted): 162 L/h
CL/F ([1]; single oral dose 25 mg, tablet): 126 L/h
CL/F ([1]; single oral dose 50 mg, capsule, fasted): 117 L/h
CL/F ([1]; single oral dose 80 mg, capsule, fasted): 118 L/h
PK profile (linearity, absorption) ([1]; up to 80 mg single dose): PK was linear and absorption was fast
No observed adverse effect level ([2]; cynomolgus monkey, daily dosing 13 weeks): 3 mpk
AUC(0-t) ([2]; cynomolgus monkey, 3 mg/kg, monkey 3 mpk, Day 1, read-out: AUC0-24): 153 ± 29.1 ng·h/mL
Cmax ([2]; cynomolgus monkey, 3 mg/kg, monkey 3 mpk, Day 1, read-out: Cmax): 104 ± 48.9 ng/mL
AUC(0-t) ([2]; cynomolgus monkey, 3 mg/kg, monkey 3 mpk, Day 28, read-out: AUC0-24): 412 ± 191 ng·h/mL
Cmax ([2]; cynomolgus monkey, 3 mg/kg, monkey 3 mpk, Day 28, read-out: Cmax): 304 ± 156 ng/mL
AUC(0-t) ([2]; cynomolgus monkey, 3 mg/kg, monkey, NOAEL 3 mpk, read-out: AUC0-24 h at NOAEL): 356 ng·h/mL
Cmax ([2]; cynomolgus monkey, 3 mg/kg, monkey, NOAEL 3 mpk, read-out: Cmax at NOAEL): 232 ng/mL
AUC(0-t) ([2]; cynomolgus monkey, 6 mg/kg, monkey 6 mpk, Day 1, read-out: AUC0-24): 692 ± 223 ng·h/mL
Cmax ([2]; cynomolgus monkey, 6 mg/kg, monkey 6 mpk, Day 1, read-out: Cmax): 401 ± 153 ng/mL
AUC(0-t) ([2]; cynomolgus monkey, 6 mg/kg, monkey 6 mpk, Day 28, read-out: AUC0-24): 1880 ± 911 ng·h/mL
Cmax ([2]; cynomolgus monkey, 6 mg/kg, monkey 6 mpk, Day 28, read-out: Cmax): 985 ± 475 ng/mL
AUC(0-t) ([2]; cynomolgus monkey, 6 mg/kg, monkey 6 mpk, Day 91, read-out: AUC0-24): 1410 ± 6190 ng·h/mL
Cmax ([2]; cynomolgus monkey, 6 mg/kg, monkey 6 mpk, Day 91, read-out: Cmax): 784 ± 512 ng/mL
AUC(0-t) ([2]; cynomolgus monkey, 12 mg/kg, monkey 12 mpk, Day 1, read-out: AUC0-24): 2510 ± 1420 ng·h/mL
Cmax ([2]; cynomolgus monkey, 12 mg/kg, monkey 12 mpk, Day 1, read-out: Cmax): 975 ± 648 ng/mL
AUC(0-t) ([2]; cynomolgus monkey, 12 mg/kg, monkey 12 mpk, Day 28, read-out: AUC0-24): 6930 ± 3790 ng·h/mL
Cmax ([2]; cynomolgus monkey, 12 mg/kg, monkey 12 mpk, Day 28, read-out: Cmax): 2160 ± 724 ng/mL
AUC(0-t) ([2]; cynomolgus monkey, 12 mg/kg, monkey 12 mpk, Day 91, read-out: AUC0-24): 6430 ± 3660 ng·h/mL
Cmax ([2]; cynomolgus monkey, 12 mg/kg, monkey 12 mpk, Day 91, read-out: Cmax): 1960 ± 677 ng/mL
Ratio over time (D 91/D 1) AUC ([2]; monkey 3 mpk): 2.4
Ratio over time (D 91/D 1) Cmax ([2]; monkey 3 mpk): 2.8
Ratio over time (D 91/D 1) AUC ([2]; monkey 6 mpk): 2.2
Ratio over time (D 91/D 1) Cmax ([2]; monkey 6 mpk): 2.2
Ratio over time (D 91/D 1) AUC ([2]; monkey 12 mpk): 2.6
Ratio over time (D 91/D 1) Cmax ([2]; monkey 12 mpk): 2.5
Morbidity / un-scheduled sacrifice ([2]; monkey, 12 mpk, 12 mg/kg): morbidity and significant symptoms necessitating un-scheduled sacrifice and dosing holiday
Effects on body weight (overall), food consumption (overall), clinical pathology in general, anatomic pathology, ophthalmology ([2]; monkey, 13 weeks): No adverse effects observed
Opportunistic infection in GI tract ([2]; monkey, 13 weeks): dose-dependent opportunistic infection in GI tract
Adverse effects ([2]; monkey, more significant and persistent in mid/high dose groups): Liquid and non-formed feces associated with dehydration
EC50 (ITK & JAK (IFNγ protein); SAD study, read-out: Clinical EC50): 7.3 nM
EC50 (ITK & JAK (IFNγ protein); read-out: SAD EC50): 0.0026 µg/mL and 7.3 nM
Inhibition of dual ITK and JAK3-stimulated IFNγ protein production (ITK & JAK (IFNγ protein)): Near complete inhibition
Inhibition of dual ITK and JAK3-stimulated IFNγ protein production (ITK & JAK (IFNγ protein); maintained for 12 hours): > 50%
